Experimental data taken from ChEMBL document CHEMBL1131315, “Synthesis and anticonvulsant activity of 2(3H)-benzoxazolone and 2(3H)-benzothiazolone derivatives” (J Med Chem, 1998).
Activity calls are given as the source filed them. The calls are words filed in the database; no cut-off is given here.

Legend:
[1] = test system: Rattus norvegicus; assay: The compound was tested per os dose of 30 mg/kg for 2 hours for maximal electroshock test (MES) on rats; MES= 0/4; format: functional
[2] = test system: Mus musculus; assay: The compound was tested for anticonvulsant activity in Maximal electroshock seizure test (MES) for 4 hr in mice(ip); no activity or toxicity at 300 mg/kg; format: functional, organism-based; design: dose 300 mg/kg
[3] = target: Sigma 2 receptor; assay: Affinity on sigma 2 receptor using [3H]- DTG as radioligand
[4] = test system: Mus musculus; assay: The compound was tested to inhibit 50% of induced maximal electroshock seizure in mice on ip administration; format: functional
[5] = test system: Rattus norvegicus; assay: The compound was tested per os dose of 30 mg/kg for 0.25 hours for rotarod toxicity; 0/4; format: functional
[6] = test system: Rattus norvegicus; assay: The compound was tested per os dose of 30 mg/kg for 0.5 hours for rotarod toxicity; 0/4; format: functional
[7] = test system: Rattus norvegicus; assay: The compound was tested per os dose of 30 mg/kg for 0.5 hours for maximal electroshock test (MES) on rats; MES= 2/4; format: functional
[8] = The compound was tested for neurologic toxicity (rotarod) test for 30 min in mice; no activity or toxicity at 300 mg/kg; format: organism-based; design: dose 300 mg/kg; conditions: mouse, in vivo, 0.5 h
[9] = test system: Rattus norvegicus; assay: The compound was tested per os dose of 30 mg/kg for 0.25 hours for maximal electroshock test on rats; MES= 3/4; format: functional
[10] = test system: Mus musculus; assay: The compound was tested for anticonvulsant activity in subcutaneous pentylenetetrazole seizure test (sc Met) for 30 min in mice; no activity or toxicity at 300 mg/kg; format: functional, organism-based; design: dose 300 mg/kg
[11] = The compound was tested for neurologic toxicity (rotarod) test for 4 hr in mice; no activity or toxicity at 300 mg/kg; format: organism-based; design: dose 300 mg/kg; conditions: mouse, in vivo
[12] = test system: Rattus norvegicus; assay: The compound was tested per os dose of 30 mg/kg for 4 hours for rotarod toxicity; 0/4; format: functional
[13] = test system: Mus musculus; assay: Time of peak effect in mice following i.p. administration.; format: functional
[14] = The compound was tested for time of peak effect (TPE) in hours for its toxicity in mice on ip administration.; format: organism-based; conditions: mouse, in vivo
[15] = test system: Rattus norvegicus; assay: The compound was tested for the effective oral dose to inhibit 50% of the anticonvulsant in rats.(value in parenthesis indicate 95% confidence limits).; format: functional
[16] = test system: Mus musculus; assay: The compound was determined for the dose (mg/kg) by rotarod test at the time of peak neurotoxic effect in mice on ip administration; format: functional
[17] = test system: Rattus norvegicus; assay: The compound was tested per os dose of 30 mg/kg for 1 hour for maximal electroshock test (MES) on rats; MES= 1/4; format: functional
[18] = test system: Rattus norvegicus; assay: The compound was tested per os dose of 30 mg/kg for 4 hours for maximal electroshock test (MES) on rats; MES= 0/4; format: functional
[19] = test system: Rattus norvegicus; assay: The compound was tested per os dose of 30 mg/kg for 2 hours for rotarod toxicity; 0/4; format: functional
[20] = test system: Mus musculus; assay: The compound was tested for anticonvulsant activity in subcutaneous pentylenetetrazole seizure test (sc Met) for 4 hr in mice; no activity or toxicity at 300 mg/kg; format: functional, organism-based; design: dose 300 mg/kg
[21] = target: Sigma non-opioid intracellular receptor 1 (Homo sapiens) (UniProt Q99720); assay: Ratio between the Ki(nM)values of sigma-2 and sigma-1; format: functional
Sigma non-opioid intracellular receptor 1 (Homo sapiens), sequence (Q99720 whole entry): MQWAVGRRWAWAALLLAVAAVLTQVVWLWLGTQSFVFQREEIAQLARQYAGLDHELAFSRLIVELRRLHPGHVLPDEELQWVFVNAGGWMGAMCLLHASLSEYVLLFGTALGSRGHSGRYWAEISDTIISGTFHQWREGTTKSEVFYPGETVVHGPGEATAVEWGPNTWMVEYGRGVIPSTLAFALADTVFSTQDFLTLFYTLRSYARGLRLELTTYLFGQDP

[22] = test system: Rattus norvegicus; assay: The compound was tested per os dose of 30 mg/kg for 1 hour for rotarod toxicity; 0/4; format: functional
[23] = test system: Mus musculus; assay: The compound was tested for anticonvulsant activity in Maximal electroshock seizure test (MES) for 30 min in mice(ip); activity at 30 mg/kg; format: functional, organism-based; design: dose 30 mg/kg
[24] = test system: Mus musculus; assay: The compound was tested to inhibit 50% of induced subcutaneous pentylenetetrazole seizure in mice on ip administration; format: functional
[25] = test system: Mus musculus; assay: The compound was tested for neurologic toxicity (rotarod) test for 4 hours in mice; active at 300 mg/kg; format: functional, organism-based; design: dose 300 mg/kg
[26] = test system: Mus musculus; assay: The compound was tested for anticonvulsant activity in Maximal electroshock seizure test (MES) for 4 hr in mice(ip); active at 300 mg/kg; format: functional, organism-based; design: dose 300 mg/kg
[27] = test system: Mus musculus; assay: Anticonvulsant activity in Maximal electroshock seizure test at 100 mg/kg i.p. in mice.; format: functional, organism-based; design: dose 100 mg/kg
[28] = test system: Mus musculus; assay: The compound was tested for neurologic toxicity (rotarod) test for 30 min in mice; active at 100 mg/kg; format: functional, organism-based; design: dose 100 mg/kg
[29] = test system: Mus musculus; assay: The compound was tested for anticonvulsant activity in subcutaneous pentylenetetrazole seizure test (sc Met) for 4 hr in mice; active at 300 mg/kg; format: functional, organism-based; design: dose 300 mg/kg
[30] = test system: Mus musculus; assay: The compound was tested for anticonvulsant activity in subcutaneous pentylenetetrazole seizure test (sc Met) for 30 min in mice; active at 100 mg/kg; format: functional, organism-based; design: dose 100 mg/kg
[31] = The compound was tested for neurologic toxicity (rotarod) test for 4 hours in mice; active at 30 mg/kg; format: organism-based; design: dose 30 mg/kg; conditions: mouse, in vivo
[32] = The compound was tested for neurologic toxicity (rotarod) test for 30 min in mice; active at 30 mg/kg; format: organism-based; design: dose 30 mg/kg; conditions: mouse, in vivo, 0.5 h
[33] = test system: Mus musculus; assay: The anticonvulsant activity in subcutaneous pentylenetetrazole seizure test (sc Met) for 4 hr in mice; no activity or no toxicity at 300 mg/kg; format: functional, organism-based; design: dose 300 mg/kg
[34] = test system: Mus musculus; assay: Anticonvulsant activity in subcutaneous pentylenetetrazole seizure test for 30 min in mice; No activity/toxicity at 300 mg/kg.; format: functional, organism-based; design: dose 300 mg/kg
[35] = (§1) The compound was determined for the dose (mg/kg) by rotarod test at the time of peak neurotoxic effect in mice on ip administration.; format: ADME, organism-based; conditions: mouse, in vivo
[36] = test system: Rattus norvegicus; assay: The compound was tested per os dose of 25 mg/kg for 0.5 hours for rotarod toxicity; 0/4; format: functional
[37] = test system: Rattus norvegicus; assay: The compound was tested per os dose of 25 mg/kg for 0.25 hours for maximal electroshock test on rats; MES= 2/4; format: functional
[38] = test system: Rattus norvegicus; assay: The compound was tested per os dose of 25 mg/kg for 1 hour for rotarod toxicity; 0/4; format: functional
[39] = test system: Mus musculus; assay: Inhibition of s.c. pentylenetetrazole induced seizure in mice following i.p. administration.; format: functional
[40] = The compound was tested for the toxic dose on oral administration. (Value in parenthesis indicate 95% confidence limits).; format: ADME; conditions: rat
[41] = test system: Rattus norvegicus; assay: The compound was tested per os dose of 25 mg/kg for 2 hours for maximal electroshock test on rats; MES= 3/4; format: functional
[42] = test system: Rattus norvegicus; assay: The compound was tested per os dose of 25 mg/kg for 2 hours for rotarod toxicity; 0/4; format: functional
[43] = test system: Mus musculus; assay: The compound was tested to inhibit 50% of induced maximal electroshock seizure in mice on ip administration.; format: functional
[44] = test system: Mus musculus; assay: The compound was tested for anticonvulsant activity in Maximal electroshock seizure test (MES) for 4 hr in mice(ip); active at 100 mg/kg; format: functional, organism-based; design: dose 100 mg/kg
[45] = test system: Rattus norvegicus; assay: The compound was tested for the effective oral dose to inhibit 50% of the anticonvulsant in rats.(Value in parenthesis indicate 95% confidence limits).; format: functional
[46] = test system: Rattus norvegicus; assay: The compound was tested per os dose of 25 mg/kg for 4 hours for maximal electroshock test on rats; MES= 2/4; format: functional
[47] = test system: Rattus norvegicus; assay: The compound was tested per os dose of 25 mg/kg for 0.25 hours for rotarod toxicity; 0/4; format: functional
[48] = test system: Rattus norvegicus; assay: The compound was tested per os dose of 25 mg/kg for 0.5 hours for maximal electroshock test on rats; MES= 2/4; format: functional
[49] = test system: Rattus norvegicus; assay: The compound was tested per os dose of 25 mg/kg for 1 hour for maximal electroshock test on rats; MES= 4/4; format: functional
[50] = Protective index value is the ratio between ED50 and TD50; format: functional
[51] = test system: Rattus norvegicus; assay: The compound was tested per os dose of 25 mg/kg for 4 hours for rotarod toxicity; 0/4; format: functional
[52] = test system: Mus musculus; assay: The compound was tested for anticonvulsant activity in Maximal electroshock seizure test for 30 min in mice(ip); active at 30 mg/kg; format: functional, organism-based; design: dose 30 mg/kg
[53] = test system: Mus musculus; assay: as §1; format: functional
[54] = The compound was tested for neurologic toxicity (rotarod) test for 30 min in mice; active at 300 mg/kg; format: organism-based; design: dose 300 mg/kg; conditions: mouse, in vivo, 0.5 h
[55] = The compound was tested for neurologic toxicity (rotarod) test for 4 hours in mice; active at 100 mg/kg; format: organism-based; design: dose 100 mg/kg; conditions: mouse, in vivo

For `CCC(=O)c1ccc2c(c1)sc(=O)n2C(=O)CC`, the Activity [1] was 0, the MES [2] was “activity at 30 mg/kg” and the Ki [3] was 670 nM. The ED50 [4] was 19.4 mg/kg, the Activity [5] was 0 and the Activity [6] was 0. For the same compound, the Activity [7] was 2, the Rotarod toxicity [8] was “No activity or toxicity at 300 mg/kg” and the Activity [9] was 3. The scMet [10] was “No activity or toxicity at 300 mg/kg”, the Rotarod toxicity [11] was “No activity or toxicity at 300 mg/kg” and the Activity [12] was 0. It also gave an Activity [13] of 0.25 h, a Toxicity [14] of 0.25 h and an ED50 [15] of 32.4 mg/kg. It also gave a TD50 [16] of 145 mg/kg, an Activity [17] of 1 and an Activity [18] of 0. For the same compound, the Activity [19] was 0, the scMet [20] was “No activity or toxicity at 300 mg/kg” and the Ratio ([21]; Cavia porcellus) was 11. For the same compound, the Activity [22] was 0, the MES [23] was “activity at 30 mg/kg” and the ED50 [24] was greater than 300 mg/kg.
In the case of `O=c1[nH]c2ccccc2s1`, the Rotarod toxicity [25] is reported as “active at 100 mg/kg”, the MES [26] is reported as “active at 300 mg/kg” and the MES [27] is reported as “active at 300 mg/kg”. For the same compound, the Rotarod toxicity [28] was “active at 100 mg/kg”, the scMet [29] was “active at 100 mg/kg” and the scMet [30] was “active at 100 mg/kg”.
In the case of `CCC(=O)c1ccc2c(c1)oc(=O)n2CCCN1CCCCC1`, the Rotarod toxicity [31] is reported as “active at 30 mg/kg”, the MES [2] is reported as “No activity or toxicity at 300 mg/kg” and the Rotarod toxicity [32] is reported as “active at 30 mg/kg”. The scMet [33] was “No activity or no toxicity at 300 mg/kg”, the MES [27] was “No activity or toxicity at 300 mg/kg” and the scMet [34] was “No activity or no toxicity at 300 mg/kg”.
For `Cn1c(=O)sc2ccccc21`, the Rotarod toxicity [31] was “active at 30 mg/kg”, the TD50 [35] was 55.2 mg/kg and the “No. of animals exhibiting toxicity / Number of animals tested” value [36] was 0. The Protected/Tested [37] was 2, the “No. of animals exhibiting toxicity / Number of animals tested” value [38] was 0 and the ED50 [39] was greater than 100 mg/kg. For the same compound, the TD50 [40] was 140 mg/kg, the Protected/Tested [41] was 3 and the “No. of animals exhibiting toxicity / Number of animals tested” value [42] was 0. The ED50 [43] was 24.2 mg/kg, the MES [44] was “active at 100 mg/kg” and the Rotarod toxicity [32] was “active at 30 mg/kg”. It also gave an Activity [13] of 0.25 h, an ED50 [45] of 16.2 mg/kg and a Toxicity [14] of 0.25 h. The Protected/Tested [46] was 2, the “No. of animals exhibiting toxicity / Number of animals tested” value [47] was 0 and the Protected/Tested [48] was 2. For the same compound, the Protected/Tested [49] was 4, the scMet [29] was “active at 100 mg/kg” and the PI [50] was 8.6. For the same compound, the “No. of animals exhibiting toxicity / Number of animals tested” value [51] was 0, the MES [52] was “active at 100 mg/kg” and the scMet [30] was “active at 100 mg/kg”.
For `O=C(c1ccccc1)c1ccc2c(c1)sc(=O)n2CCN1CCCC1`, the Ki [3] was 225 nM, the ED50 [39] was greater than 210 mg/kg and the TD50 [53] was 170 mg/kg. The Rotarod toxicity [54] was “active at 100 mg/kg”, the ED50 [43] was 42.5 mg/kg and the Activity [13] was 0.25 h. The MES [26] was “active at 300 mg/kg”, the Toxicity [14] was 0.25 h and the scMet [33] was “No activity or no toxicity at 300 mg/kg”. For the same compound, the MES [27] was “active at 300 mg/kg”, the Ratio [21] was 4 and the scMet [34] was “No activity or no toxicity at 300 mg/kg”. For the same compound, the Rotarod toxicity [55] was “active at 100 mg/kg”.
